Source: patent US20060148754A1, “Composition for treating and/or preventing dysfunctions associated with type 2 diabetes mellitus and insulin resistance” (priority 2003, published 2006)

Test: Acetate and glycerol tracer infusion study with ingestion of lactulose or saline in obese, insulin resistant subjects
Assay type: in vivo, human
Description: Eight obese and insulin resistant subjects received a primed constant intravenous infusion of [1-^13C]acetate at the rate of 0.50 μmol·kg^−1·min^−1 and of [1,1,2,3,3-^2H5]glycerol at the rate of 0.11 μmol·kg^−1·min^−1 for 9 hours. After 3 hours of tracer infusion, patients ingested 30 g of pure lactulose, or saline solution. Arterialized blood samples were collected regularly.

Compound: OC[C@H]1O[C@@H](O[C@@H]2[C@@H](CO)OC(O)(CO)[C@H]2O)[C@H](O)[C@@H](O)[C@H]1O (mixture of isomers) [lactulose]
- plasma acetate concentration, maximum (after ingestion of 30 g lactulose, then decreased to baseline): ≈ 400 μmol/L
- FFA concentrations (after ingestion of 30 g lactulose, to 120 min, thereafter increased slowly): decreased significantly
- acetate turnover rate (after ingestion of 30 g pure lactulose, eight obese insulin resistant subjects, saline 10.3±2.2, P<0.0001): 15.5 ± 2.2 µmol/kg/min
- glycerol turnover (after ingestion of 30 g pure lactulose, saline 3.5±0.3, P≦0.05): 2.8 ± 0.4 µmol/kg/min
